Experimental data taken from patent publication US20240041908A1, “IMMUNOMODULATORY OLIGOSACCHARIDES FOR THE TREATMENT OF AUTISM SPECTRUM DISORDER” (Intrinsic Medicine, Inc., priority 2020, published 2024).
Where two headings read alike, the source gives them in different places.

Columns and labels:
TNFα and IL-8 = details: independent anti-inflammatory effects; cited from earlier work
[1] = system: child, diagnosed with ASD with frequent anxiety and episodes of self harm; assay: Case report: child diagnosed with ASD given oral 3′-sialyllactose daily; type: in vivo, human; details: 40-50 mg/kg per day orally once a day
Description: A child, diagnosed with ASD with frequent anxiety and episodes of self harm, was given 40-50 mg/kg per day 3′-sialyllactose (Glycom, food grade, GRAS) dosed orally once a day.

[2] = system: murine and human derived macrophages stimulated with LPS; details: cited from earlier work; for IL-1β, IL-2, IL-4, IL-6, IL-12, IFNγ or TNF-α: in vitro

SMILES: CC1O[C@@H](OC2[C@H](O[C@H]3C(O)C(O)C(O)O[C@H]3CO)OC(CO)[C@H](O)[C@@H]2O)C(O)[C@@H](O)[C@@H]1O (some centres unmarked) [2′fucosyllactose, 2′-fucosyllactose]
- TNFα and IL-8 (TNFα and IL-8): reduction

SMILES: CC(=O)N[C@H]1C([C@H](O)[C@H](O)CO)O[C@@](O[C@@H]2C(O)[C@H](O[C@@H]3C(CO)O[C@@H](O)C(O)[C@H]3O)OC(CO)[C@@H]2O)(C(=O)O)C[C@H]1O (some centres unmarked) [3′-sialyllactose]
- heart rate ([1]; measured by parent before and after treatment): reduction in heart rate
- anxiety ([1]; noted by parent): significant decrease
- self-harm episodes ([1]; noted by parent): significant decrease
- PDL1, COX2 and select chemokines such as CCL2 (MCP1) and CCL5 [2]: reduce
- IL-1β, IL-2, IL-4, IL-6, IL-12, IFNγ or TNF-α ([2]; listed as 3′-SL): more significant reductions
- IL-1β, IL-2, IL-4, IL-6, IL-12, IFNγ or TNF-α ([2]; listed as 3′SL): reductions

SMILES: CC(=O)N[C@H]1C([C@H](O)[C@H](O)CO)O[C@@](OCC2O[C@@H](O[C@@H]3C(CO)O[C@@H](O)C(O)[C@H]3O)C(O)[C@@H](O)[C@H]2O)(C(=O)O)C[C@H]1O (some centres unmarked) [6′SL, 6′-sialyllactose]
- IL-1β, IL-2, IL-4, IL-6, IL-12, IFNγ or TNF-α [2]: reductions
